We go through 15 compounds from PubChem BioAssay (NCI).

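Step 1: Grow cells in 96-well plates. Step 2: Expose to compound for 48 hours at 5 concentrations. Step 3: Interpolate endpoints linearly; if unreached, use highest concentration. TGI is the concentration that stops growth completely.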

Among the test systems are A549 NSCLC; HOP-62 NSCLC; HOP-92 NSCLC; KM12 colon; MDA-N; NCI-H460 lung; OVCAR-3 ovarian; SK-OV-3 ovarian; U251 CNS; RXF 393 renal.
Assay in all cases: NCI anticancer screen, dose series, 48 h

As to `Cn1c(=O)c2c(nc3n2CCC(=O)N3CCCCl)n(C)c1=O`, the TGI in the experiment with A549 NSCLC, in the experiment with HOP-62 NSCLC, in the experiment on HOP-92 NSCLC, with KM12 colon, in the experiment on MDA-N and with NCI-H460 lung was more than 100 µM throughout. Further, the TGI in the experiment on OVCAR-3 ovarian, with SK-OV-3 ovarian and in the experiment on U251 CNS was more than 100 µM each time.

Take `N#C/C=c1/c2ccccc2n2nc3ccccc3c12`: the TGI in the experiment with A549 NSCLC is more than 100 µM; with HOP-62 NSCLC, 44.4 µM; in the experiment on KM12 colon, 68.3 µM; in the experiment with MDA-N, more than 100 µM; with NCI-H460 lung, more than 100 µM; in the experiment with OVCAR-3 ovarian, more than 100 µM. Further, the TGI was found to be 58.6 µM in the experiment on RXF 393 renal, 22.9 µM with SK-OV-3 ovarian and 30.9 µM with U251 CNS.

In the case of `O=C1C(C(c2ccc([N+](=O)[O-])cc2)N2CCOCC2)=C(O)C(c2ccccc2)N1c1ccccc1` (stereo not drawn), the TGI in the experiment with A549 NSCLC, in the experiment on HOP-62 NSCLC, in the experiment on KM12 colon, with MDA-N, in the experiment with NCI-H460 lung and in the experiment on OVCAR-3 ovarian was more than 10 µM each time. Also, the TGI with RXF 393 renal, in the experiment on SK-OV-3 ovarian and in the experiment on U251 CNS was more than 10 µM in each case.

`O=C1CCCCC/C1=C\c1cccc([N+](=O)[O-])c1`: the TGI with A549 NSCLC is more than 100 µM; with HOP-62 NSCLC it was more than 100 µM; in the experiment with KM12 colon, 56.1 µM; with MDA-N, more than 100 µM; in the experiment with NCI-H460 lung, 67.9 µM; with OVCAR-3 ovarian, more than 100 µM. Also, the results for the TGI in the experiment on RXF 393 renal, in the experiment on SK-OV-3 ovarian and in the experiment on U251 CNS were 93.1 µM, more than 100 µM and more than 100 µM, respectively.

With `C[C@]12C(=O)C=CCC1=CC[C@@H]1[C@@H]2[C@H]2CC3(O)C(=O)O[C@@]4(C)[C@H]5C[C@@]6(C)[C@@H]7[C@@]2(O)[C@]1(OC[C@H]6C(=O)O5)O[C@]734` (stereo partly drawn), the TGI is more than 100 µM with A549 NSCLC; more than 100 µM in the experiment on HOP-92 NSCLC; more than 100 µM in the experiment with KM12 colon; more than 100 µM in the experiment on MDA-N; more than 100 µM with NCI-H460 lung; 55.7 µM in the experiment with RXF 393 renal. Moreover, the TGI with U251 CNS is more than 100 µM.

For `CC(=O)OC12CC(C(F)(F)F)(C(F)(F)F)OC1(OC(C)=O)CC(C(F)(F)F)(C(F)(F)F)O2` (stereo not drawn), the TGI in the experiment on A549 NSCLC was 5.6 µM; with HOP-62 NSCLC, more than 100 µM; with KM12 colon, 11.5 µM; with MDA-N it was more than 100 µM; in the experiment with NCI-H460 lung it was more than 100 µM; in the experiment with OVCAR-3 ovarian, more than 100 µM. In addition, the TGI in the experiment with RXF 393 renal turned out to be 77.7 µM; in the experiment with SK-OV-3 ovarian it was 79.8 µM; in the experiment with U251 CNS, 19.2 µM.

For the compound `COc1ccc(OC)c(NC2=NCCO2)c1`, the TGI was more than 100 µM in the experiment on A549 NSCLC; more than 100 µM in the experiment with HOP-62 NSCLC; 77.4 µM in the experiment with HOP-92 NSCLC; more than 100 µM in the experiment on KM12 colon; more than 100 µM in the experiment on MDA-N; more than 100 µM with NCI-H460 lung. The TGI in the experiment with OVCAR-3 ovarian, in the experiment with RXF 393 renal and in the experiment with U251 CNS was more than 100 µM each time.

As to `O=C(CNc1nccs1)Nn1cnc2ccc(S(=O)(=O)Nc3nccs3)cc2c1=O`, the TGI in the experiment on A549 NSCLC, in the experiment with HOP-62 NSCLC, with HOP-92 NSCLC, in the experiment with KM12 colon, with MDA-N and in the experiment with NCI-H460 lung was more than 100 µM throughout. The TGI in the experiment with OVCAR-3 ovarian, in the experiment with SK-OV-3 ovarian and with U251 CNS was more than 100 µM in each case.

Turning to `CCOC(=O)CCC(NC(=O)c1ccc(Nc2nc3cc(C(F)(F)F)ccc3nc2C(=O)OCC)cc1)C(=O)OCC` (stereo not drawn), the TGI with A549 NSCLC is 27.4 µM; in the experiment with HOP-62 NSCLC, 27 µM; in the experiment on HOP-92 NSCLC, 9.95 µM; in the experiment on MDA-N, 21.3 µM; with NCI-H460 lung, 33.9 µM; in the experiment with OVCAR-3 ovarian, 26.7 µM. Also, in the experiment on U251 CNS, the TGI was 23.3 µM.

As to `C=CCOC(=O)c1c(C)n([O-])c2cc(Cl)c(Cl)cc2[n+]1=O`, the TGI in the experiment on A549 NSCLC amounted to 87.7 µM; with HOP-62 NSCLC it was 57.6 µM; with HOP-92 NSCLC it was 53.1 µM; in the experiment on KM12 colon, 84.7 µM; in the experiment on MDA-N, 45.6 µM; with NCI-H460 lung it was 42.3 µM. Besides, the TGI was 40.8 µM with OVCAR-3 ovarian, 59.8 µM with SK-OV-3 ovarian and more than 100 µM with U251 CNS.

Consider `CCOC(=O)C1(C#N)C2(C#N)C(N)=NC(ON=C(C)C)(ON=C(C)C)C12C#N` (stereo not drawn), for which the TGI in the experiment with A549 NSCLC, with HOP-62 NSCLC, in the experiment with HOP-92 NSCLC, in the experiment with KM12 colon, with MDA-N and in the experiment on NCI-H460 lung was more than 100 µM in each case. The TGI with RXF 393 renal, in the experiment with SK-OV-3 ovarian and in the experiment with U251 CNS was more than 100 µM in each case.

As to `C/C(=N\NC(=O)CC#N)C(CN1CCCCC1)C(c1ccccc1)c1c(O)c2ccccc2oc1=O` (stereo not drawn), the TGI is more than 100 µM in the experiment on A549 NSCLC; 95.7 µM in the experiment with HOP-92 NSCLC; more than 100 µM in the experiment with KM12 colon; more than 100 µM in the experiment on MDA-N; more than 100 µM in the experiment on OVCAR-3 ovarian; more than 100 µM in the experiment on SK-OV-3 ovarian. Further, the TGI in the experiment on U251 CNS was more than 100 µM.

`COc1cc(S(=O)(=O)Nc2ccc(-c3csc(N4C(=O)C(Cl)C4c4cccc(Oc5ccccc5)c4)n3)cc2)ccc1Cl` (stereo not drawn): the TGI in the experiment on A549 NSCLC was more than 100 µM; with HOP-62 NSCLC, more than 100 µM; with HOP-92 NSCLC, 37.4 µM; with KM12 colon it was 73.9 µM; in the experiment with MDA-N, 64.7 µM; in the experiment on NCI-H460 lung, more than 100 µM. Moreover, the TGI in the experiment on OVCAR-3 ovarian was more than 100 µM; in the experiment on RXF 393 renal, 15.6 µM; in the experiment on SK-OV-3 ovarian, more than 100 µM.

Turning to `c1ccc2[nH]c3c(N=NC4=NCCN4)c4ccccc4c-3nc2c1`, the TGI was 16.8 µM in the experiment on A549 NSCLC; 39.3 µM in the experiment on HOP-62 NSCLC; 20.4 µM in the experiment with HOP-92 NSCLC; 15.8 µM in the experiment on KM12 colon; 20.7 µM in the experiment with MDA-N; 7.81 µM with NCI-H460 lung. The TGI in the experiment on OVCAR-3 ovarian turned out to be 30.2 µM; in the experiment with RXF 393 renal it was 14.3 µM; in the experiment on U251 CNS, 19.7 µM.

For the compound `COC(=O)[C@H]1[C@@H](O)[C@@]2(O)c3c(OC)cc(OC)cc3O[C@@]2(c2ccc3c(c2)OCO3)[C@@H]1c1ccccc1`, the TGI in the experiment on A549 NSCLC is 0.5 µM; with HOP-62 NSCLC, 0.68 µM; with HOP-92 NSCLC it was more than 50 µM; in the experiment on KM12 colon it was 0.113 µM; in the experiment on MDA-N, 2.34 µM; in the experiment with OVCAR-3 ovarian, 2.8 µM. Also, the TGI is 1.54 µM with SK-OV-3 ovarian and more than 50 µM in the experiment with U251 CNS.
